Like-named read-outs stand apart in the source and are kept apart here.
What was measured:
human mGluR5a receptor = target: T1, human mGluR5a receptor (Homo sapiens, UniProt P41594); assay: Cell-based functional Ca2+ mobilization assay (FDSS), potentiation of glutamate EC20 response; conditions: for EC50 / pEC50: HEK cells transfected with human mGluR5 (H10H or H12H), in presence of EC20 glutamate; for Emax / Emax (%): maximum % effect in concentration-response curve, as percent of response to maximally effective glutamate
T1 construct: cDNA subcloned into pcDNA3.1(-)
T1 sequence (P41594 21-1180 isoform P41594-2 limits assumed): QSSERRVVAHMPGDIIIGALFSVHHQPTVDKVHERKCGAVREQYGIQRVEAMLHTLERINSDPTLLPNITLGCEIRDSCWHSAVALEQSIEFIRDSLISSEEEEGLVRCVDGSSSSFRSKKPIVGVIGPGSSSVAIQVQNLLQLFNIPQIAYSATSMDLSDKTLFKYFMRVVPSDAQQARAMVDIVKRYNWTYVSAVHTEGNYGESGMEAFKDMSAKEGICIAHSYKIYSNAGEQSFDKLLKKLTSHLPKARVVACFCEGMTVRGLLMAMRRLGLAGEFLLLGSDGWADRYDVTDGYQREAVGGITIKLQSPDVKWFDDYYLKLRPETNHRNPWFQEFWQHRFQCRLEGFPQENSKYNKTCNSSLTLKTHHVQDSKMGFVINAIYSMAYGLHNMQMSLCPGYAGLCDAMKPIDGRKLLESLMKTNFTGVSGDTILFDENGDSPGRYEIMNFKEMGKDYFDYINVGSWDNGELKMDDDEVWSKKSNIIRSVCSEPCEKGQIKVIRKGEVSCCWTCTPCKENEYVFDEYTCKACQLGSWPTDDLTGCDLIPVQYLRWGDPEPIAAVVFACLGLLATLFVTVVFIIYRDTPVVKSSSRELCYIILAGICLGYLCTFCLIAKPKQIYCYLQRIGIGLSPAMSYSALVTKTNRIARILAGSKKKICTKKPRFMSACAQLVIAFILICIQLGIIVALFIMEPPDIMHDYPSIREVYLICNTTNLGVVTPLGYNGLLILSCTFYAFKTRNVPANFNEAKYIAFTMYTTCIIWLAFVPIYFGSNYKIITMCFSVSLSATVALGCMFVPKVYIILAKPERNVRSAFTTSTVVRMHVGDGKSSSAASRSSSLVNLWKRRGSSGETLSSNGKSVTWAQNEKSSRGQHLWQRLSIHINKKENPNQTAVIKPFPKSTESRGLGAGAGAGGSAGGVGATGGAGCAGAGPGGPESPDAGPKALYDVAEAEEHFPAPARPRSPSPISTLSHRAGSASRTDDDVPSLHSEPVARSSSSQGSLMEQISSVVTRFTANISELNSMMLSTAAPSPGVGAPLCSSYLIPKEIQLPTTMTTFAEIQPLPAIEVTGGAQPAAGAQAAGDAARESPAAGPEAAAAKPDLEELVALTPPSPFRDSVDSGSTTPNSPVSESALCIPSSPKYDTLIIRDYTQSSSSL
Summary of the method: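 HEK293A cells stably expressing human mGluR5a (H10H or H12H clones), plated overnight in glutamate-glutamine-free medium, loaded with Ca2+-sensitive dye (e.g. Fluo-4) and read on FDSS.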

Compound	EC50 (human mGluR5a receptor; read-out: EC50) [nM]	Emax (human mGluR5a receptor) [%]	melting point [°C]	EC50 (human mGluR5a receptor; EC50 (nM)) [nM]	pEC50 (human mGluR5a receptor)	Emax (%) (human mGluR5a receptor)
CC1CN(c2ccc(F)cc2)C(=O)c2cc(COc3ccccc3)nn21 (racemic) [Example 19]	71	68	99.5			
CC1CN(c2ccc(F)cc2)C(=O)c2cc(COc3ccc(F)cc3)nn21 (racemic) [Example 234]	141	69	164.2			
CC1CN(c2cccc(F)c2)C(=O)c2cc(COc3ccc(F)cc3)nn21 (racemic) [Example 235]	170	64	128.1			
Cc1nc(N2CC(C)n3nc(COc4ccc(F)cc4)cc3C2=O)ccc1F (racemic) [Example 236]	151	64	123.5			
O=C1c2cc(COc3ccccc3)nn2CCN1c1ccc(F)c(F)c1 [Example 7]	98	80	> 300			
O=C1c2cc(COc3ccccc3)nn2CCN1c1cccc(F)c1 [Example 8]		81	155	132		
O=C1c2cc(COc3ccccc3)nn2CCN1c1ccccc1F [Example 9]		82	154.7	162		
Cc1cccc(N2CCn3nc(COc4ccccc4)cc3C2=O)n1 [Example 10]	162	84	129.7			
O=C1c2cc(COc3ccccc3)nn2CCN1c1ccncc1 [Example 14]	1480	72	271.3			
COCC1Cn2nc(COc3ccccc3)cc2C(=O)N1c1ccc(F)cc1 (centres unmarked) [Example 267]	933				6.03	70
O=C1c2cc(COc3ccccc3)nn2CC(CO)N1c1ccc(F)cc1 (centres unmarked) [Example 268]	> 10000				<5.00	27
O=C1c2cc(COc3ccccc3)nn2CC(CF)N1c1ccc(F)cc1 (centres unmarked) [Example 269]	692				6.16	58
COC[C@@H]1Cn2nc(COc3ccccc3)cc2C(=O)N1c1ccc(F)cc1 [Example 270]	> 10000	39				
O=C1c2cc(COc3ccccc3)nn2CCN1c1cccc(C2CCOCC2)n1 [Example 274]	2570				5.59	65
O=C1c2cc(COc3ccccc3)nn2CCN1c1cccc(C2CCNCC2)n1 [Example 275]	> 30200				<4.52	36
CN(C)c1ccnc(N2CCn3nc(COc4ccccc4)cc3C2=O)n1 [Example 276]	1260				5.90	68
CNc1ccnc(N2CCn3nc(COc4ccccc4)cc3C2=O)n1 [Example 277]	933				6.03	63
CNc1cccc(N2CCn3nc(COc4ccccc4)cc3C2=O)n1 [Example 278]	275	56				
O=C1c2cc(COc3ccccc3)nn2CCN1c1cccc(N2CCCC2)n1 [Example 281]	263				6.58	68
CN(C)c1ccc(F)c(N2CCn3nc(COc4ccccc4)cc3C2=O)n1 [Example 283]	41				7.39	77
CN(C)c1ccc(N2CCn3nc(COc4ccccc4)cc3C2=O)nn1 [Example 284]	2820				5.55	53
Nc1cccc(N2CCn3nc(COc4ccccc4)cc3C2=O)n1 [Example 285]	741				6.13	68
CN(C)c1nccnc1N1CCn2nc(COc3ccccc3)cc2C1=O [Example 288]	398				6.40	69
CN(C)c1cccnc1N1CCn2nc(COc3ccccc3)cc2C1=O [Example 289]	1200	65				
Cc1cc(N(C)C)nc(N2CCn3nc(COc4ccccc4)cc3C2=O)c1 [Example 290]	47				7.33	56
Cc1ccc(N2CCn3nc(COc4ccccc4)cc3C2=O)nc1N(C)C [Example 292]	34				7.47	66
COc1nc(N2CCn3nc(COc4ccccc4)cc3C2=O)ncc1Cl [Example 295]	28				7.56	69
COc1cc(N2CCn3nc(COc4ccccc4)cc3C2=O)nnc1Cl [Example 296]	620	50				
COc1ncc(C)cc1N1CCn2nc(COc3ccccc3)cc2C1=O [Example 298]	260				6.58	73
COc1ccc(N2CCn3nc(COc4ccccc4)cc3C2=O)nc1OC [Example 301]	96				7.02	58
